Converted amounts (≈) assume the structure as drawn. The source made the active and inactive calls. No cut-off for these calls is given here.
Columns and labels:
[1] = Solubility of compound in FaSSIF; format: ADME
[2] = Unbound clearance in rat liver microsomes at 0.5 uM incubated upto 45 mins; format: ADME, Microsome; conditions: 0.75 h
Influenza A virus [3] = assay: Antiviral activity against influenza A virus H1N1 A/Puerto Rico/8/1934 infected in MDCK cells assessed as reduction in viral proliferation incubated for 24 hrs by FFU assay; format: functional, organism-based; conditions: H1N1 A/Puerto Rico/8/1934, MDCK
[4] = Inhibition of STT3A/STT3B mediated N-linked glycosylation in STT3A knockout human H1-HeLa cells stably transduced with Halo3N-ER sequence by measuring effective concentration incubated for 24 hrs by Western blotting analysis; format: cell-based
[5] = Unbound clearance in Wistar Han rat at 2 mg/kg,po or 1 mg/kg,iv administrated upto 60 mins by LC-MS/MS analysis; format: ADME, organism-based; conditions: in vivo, 1 h
[6] = Inhibition of STT3A/STT3B mediated N-linked glycosylation in STT3B knockout human H1-HeLa cells stably transduced with Halo3N-ER sequence by measuring effective concentration incubated for 24 hrs by Western blotting analysis; format: cell-based
Human respirovirus 3 = assay: Antiviral activity against Human parainfluenza virus 3 JS infected in human A549 cells assessed as reduction in viral proliferation incubated for 44 hrs by Hoechst dye based fluorescence analysis; format: functional, organism-based; conditions: Human respirovirus 3, JS, A549, 44 h
Human coronavirus 229E = assay: Antiviral activity against Human coronavirus 229E infected in human MRC5 cells assessed as reduction in viral growth incubated for 68 hrs by CellTiter-Glo luminescence assay; format: functional, organism-based; conditions: MRC5, 68 h
H1-HeLa [7] = assay: Inhibition of STT3A/STT3B in human H1-HeLa cells assessed as upregulation of […] gene expression incubated for 24 hrs; format: cell-based
Influenza A virus [8] = assay: Antiviral activity against influenza A virus H1N1 A/Puerto Rico/8/1934 infected in MDCK cells assessed as reduction in viral replication measured after 3 hrs of post-infection by RT-qPCR analysis relative to control; format: functional; set-up: scale not given: the % may be the effect or the level left
[9] = Unbound clearance in human liver microsomes at 0.5 uM incubated upto 45 mins; format: ADME, Microsome; conditions: 0.75 h
[10] = MRT in CD1 mouse at 2 mg/kg,po or 1 mg/kg,iv administrated upto 60 mins by LC-MS/MS analysis; format: ADME, organism-based; conditions: in vivo
H1-HeLa [11] = assay: Inhibition of STT3A/STT3B in human H1-HeLa cells assessed as upregulation of MANF gene expression incubated for 24 hrs; format: cell-based
[12] = Bioavailability in CD1 mouse at 2 mg/kg,po or 1 mg/kg,iv administrated upto 60 mins by LC-MS/MS analysis; format: ADME, organism-based; conditions: in vivo
Influenza A virus [13] = assay: Antiviral activity against influenza A virus H1N1 A/Puerto Rico/8/1934 infected in MDCK cells assessed as reduction in viral replication measured after 30 hrs of post-infection by RT-qPCR analysis relative to control; format: functional; set-up: scale not given: the % may be the effect or the level left
A549 [14] = assay: Cytotoxicity against human A549 cells; format: functional
[15] = Volume of distribution at steady state in CD1 mouse at 2 mg/kg,po or 1 mg/kg,iv administrated upto 60 mins by LC-MS/MS analysis; format: ADME, organism-based; conditions: in vivo, 1 h
[16] = MRT in Wistar Han rat at 2 mg/kg,po or 1 mg/kg,iv administrated upto 60 mins by LC-MS/MS analysis; format: ADME, organism-based; conditions: in vivo
A549 [17] = assay: Cytotoxicity against human A549 cells by fluorescent cell imaging assay; format: functional
H1-HeLa [18] = assay: Inhibition of STT3A/STT3B in human H1-HeLa cells assessed as upregulation of SDF2L1 gene expression incubated for 24 hrs; format: cell-based
[19] = Inhibition of STT3A/STT3B mediated N-linked glycosylation in human H1-HeLa cells stably transduced with ERluc by measuring effective concentration of inhibition incubated for 18 hrs by One-Glo luciferase reporter assay; format: cell-based
SARS-CoV-2 = assay: Antiviral activity against SARS-CoV-2 infected in human A549 cells assessed as reduction in viral growth incubated for 24 hrs by Nano-Glo reagent based analysis; format: functional, organism-based; conditions: Severe acute respiratory syndrome coronavirus 2, A549, 24 h
[20] = Volume of distribution at steady state in Wistar Han rat at 2 mg/kg,po or 1 mg/kg,iv administrated upto 60 mins by LC-MS/MS analysis; format: ADME, organism-based; conditions: in vivo, 1 h
[21] = Unbound clearance in CD1 mouse at 2 mg/kg,po or 1 mg/kg,iv administrated upto 60 mins by LC-MS/MS analysis; format: ADME, organism-based; conditions: in vivo, 1 h
[22] = Bioavailability in Wistar Han rat at 2 mg/kg,po or 1 mg/kg,iv administrated upto 60 mins by LC-MS/MS analysis; format: ADME, organism-based; conditions: in vivo
[23] = Cytotoxicity against human MRC5 cells by luminescence-based cell viability assay; format: toxicity
[24] = Chromatographic hydrophobicity index, logD of the compound at pH 7.4; format: physicochemical; conditions: buffer
H1-HeLa [25] = assay: Inhibition of STT3A/STT3B in human H1-HeLa cells assessed as upregulation of DERL3 gene expression incubated for 24 hrs; format: cell-based
HepG2 = assay: Selectivity ratio of apparent dissociation constant for binding affinity to STT3A in human HepG2 cells to apparent dissociation constant for binding affinity to STT3B in human HepG2 cells; format: cell-based
Mus musculus [26] = assay: In vivo inhibition of STT3A/STT3B in C57BL/6 mouse assessed as upregulation of […] expression in blood at 0.1 to 10 mg/kg,po measured after 6 hrs by RT-qPCR analysis; format: functional, organism-based; conditions: dose 0.1-10 mg/kg
[27] = Cytotoxicity against human Hepatocyte cultured as 3D spheroids incubated for 14 days by CellTiter-Glo luminescence assay; format: toxicity, cell-based; conditions: hepatocytes cultured as 3D spheroids
Mus musculus [28] = assay: In vivo inhibition of STT3A/STT3B in C57BL/6 mouse assessed as upregulation of MANF expression in lung at 0.1 to 10 mg/kg,po measured after 6 hrs by RT-qPCR analysis; format: functional, organism-based; conditions: dose 0.1-10 mg/kg
Mus musculus [29] = assay: In vivo inhibition of STT3A/STT3B in C57BL/6 mouse assessed as upregulation of SDF2L1 expression in lung at 0.1 to 10 mg/kg,po measured after 6 hrs by RT-qPCR analysis; format: functional, organism-based; conditions: dose 0.1-10 mg/kg
Mus musculus [30] = assay: In vivo inhibition of STT3A/STT3B in C57BL/6 mouse assessed as upregulation of SDF2L1 expression in blood at 0.1 to 10 mg/kg,po measured after 6 hrs by RT-qPCR analysis; format: functional, organism-based; conditions: dose 0.1-10 mg/kg
Mus musculus [31] = assay: In vivo inhibition of STT3A/STT3B in C57BL/6 mouse assessed as upregulation of […] expression in lung at 0.1 to 10 mg/kg,po measured after 6 hrs by RT-qPCR analysis; format: functional, organism-based; conditions: dose 0.1-10 mg/kg
Mus musculus [32] = assay: In vivo inhibition of STT3A/STT3B in C57BL/6 mouse assessed as upregulation of DERL3 expression in blood at 0.1 to 10 mg/kg,po measured after 6 hrs by RT-qPCR analysis; format: functional, organism-based; conditions: dose 0.1-10 mg/kg
Mus musculus [33] = assay: In vivo inhibition of STT3A/STT3B in C57BL/6 mouse assessed as upregulation of MANF expression in blood at 0.1 to 10 mg/kg,po measured after 6 hrs by RT-qPCR analysis; format: functional, organism-based; conditions: dose 0.1-10 mg/kg
[34] = Unbound clearance in mouse liver microsomes at 0.5 uM incubated upto 45 mins; format: ADME, Microsome; conditions: 0.75 h
Mus musculus [35] = assay: In vivo inhibition of STT3A/STT3B in C57BL/6 mouse assessed as upregulation of DERL3 expression in lung at 0.1 to 10 mg/kg,po measured after 6 hrs by RT-qPCR analysis; format: functional, organism-based; conditions: dose 0.1-10 mg/kg
[36] = Neurotoxicity in human iPSC cells co-cultured with human astrocyte assessed as inhibition of cell growth at 300 nM incubated for 48 hr by multi-electrode array analysis relative to control; format: toxicity, cell-based; conditions: ipsc, 48 h, 0.3 µM

CN(C)S(=O)(=O)c1ccc(N2CCCC2)c(-c2cc3ccccc3[nH]2)c1
solubility [1]: < 1 µg/mL | CL free [2]: 23136 mL/min/kg | EC50 (Influenza A virus [3]): 152 nM | EC50 [4]: 34 nM | CL free [5]: 102538 mL/min/kg | EC50 [6]: 36 nM | EC50 (Human respirovirus 3): 9 nM | EC50 (Human coronavirus 229E): 25 nM | inhibition (H1-HeLa [7]): Active | Activity (Influenza A virus [8]): >90% | CL free [9]: 303 mL/min/kg | MRT [10]: 54 min | inhibition (H1-HeLa [11]): Active | bioavailability [12]: 2% | Activity (Influenza A virus [13]): 60% | CC50 (A549 [14]): 590 nM | Vdss [15]: 6 L/kg | MRT [16]: 42 min | CC50 (A549 [17]): 661 nM | inhibition (H1-HeLa [18]): Active | EC50 [19]: 21 nM | EC50 (SARS-CoV-2): 34 nM | Vdss [20]: 5.7 L/kg | CL free [21]: 61467 mL/min/kg | bioavailability [22]: 0% | CC50 [23]: 688 nM | chromatographic logD [24]: 7 | inhibition (H1-HeLa [25]): Active

CN(C)S(=O)(=O)c1cnc(N2CCCC2)c(-c2cc3ccccc3[nH]2)c1
EC50 [19]: 779 nM

O=C([C@@H]1CCN1S(=O)(=O)c1ccc(N2CC[C@@H](O)C2)c(-c2cc3ccccc3[nH]2)c1)N1CCOCC1
CL free [2]: 1998 mL/min/kg | EC50 (Human respirovirus 3): 57 nM | EC50 (Human coronavirus 229E): 7 nM | CL free [9]: 904 mL/min/kg | CC50 (A549 [14]): 2000 nM | CC50 (A549 [17]): 1950 nM | EC50 [19]: 5 nM | EC50 (SARS-CoV-2): 4 nM | CC50 [23]: 926 nM | chromatographic logD [24]: 3.5

Cc1ccc2cc(-c3cc(S(=O)(=O)N(C)CC(=O)N4CCOC[C@@H]4C)ccc3N3CCCC3)[nH]c2c1
Selectivity ratio (HepG2): 10 | EC50 (Human respirovirus 3): 12 nM | EC50 (Human coronavirus 229E): 5 nM | CC50 (A549 [17]): 57 nM | EC50 [19]: 1 nM | CC50 [23]: 199 nM

C[S@@](=N)(=O)c1ccc(N2CC[C@H](O)C2)c(-c2cc3ccccc3[nH]2)c1
inhibition (Mus musculus [26]): Active | solubility [1]: 767 µg/mL (≈ 2160 µM) | IC50 at 14 days [27]: < 1200 nM | inhibition (Mus musculus [28]): Active | EC50 [4]: 28 nM | inhibition (Mus musculus [29]): Active | EC50 [6]: 10 nM | inhibition (Mus musculus [30]): Active | CL free [9]: < 12 mL/min/kg | MRT [10]: 180 min | inhibition (Mus musculus [31]): Active | bioavailability [12]: 62% | inhibition (Mus musculus [32]): Active | Vdss [15]: 2 L/kg | EC50 [19]: 15 nM | CL free [21]: 38 mL/min/kg | inhibition (Mus musculus [33]): Active | CL free [34]: 30 mL/min/kg | chromatographic logD [24]: 2.7 | inhibition (Mus musculus [35]): Active

Cc1cnc(NC(=O)c2cc(S(=O)(=O)N(C)C)ccc2N2CCCC2)s1
solubility [1]: < 1 µg/mL | CL free [2]: ~ 2000 ml/min.kg | IC50 at 14 days [27]: 20000 nM | CL free [5]: ~ 10000 ml/min.kg | EC50 (Human respirovirus 3): 379 nM | EC50 (Human coronavirus 229E): 1360 nM | MRT [16]: 18 min | EC50 [19]: 589 nM | EC50 (SARS-CoV-2): 1360 nM | Vdss [20]: 1.9 L/kg | bioavailability [22]: 0.6% | chromatographic logD [24]: 4.9

CCCC(C)C1(CC)C(=O)NC(=O)NC1=O (stereo not drawn) [PENTOBARBITAL]
Activity [36]: Non-Toxic

C[S@](=N)(=O)c1ccc(N2CC[C@H](O)C2)c(-c2cc3ccccc3[nH]2)c1
CL free [9]: < 12 mL/min/kg | EC50 [19]: 279 nM | chromatographic logD [24]: 2.7

Cc1ccc2cc(-c3cc(S(=O)(=O)N(C)CC(=O)N4CCOCC4)ccc3N3CCCC3)[nH]c2c1
EC50 (Human respirovirus 3): 6 nM | EC50 (Human coronavirus 229E): 2 nM | Activity (Influenza A virus [8]): >90% | Activity (Influenza A virus [13]): 60% | CC50 (A549 [14]): 13 nM | CC50 (A549 [17]): 35 nM | EC50 [19]: 2 nM | EC50 (SARS-CoV-2): 4 nM | CC50 [23]: 44 nM

CN(C)S(=O)(=O)c1ccc(N2CCCC2)c(-c2cc3ccncc3[nH]2)c1
EC50 [19]: 394 nM

CN(C)S(=O)(=O)c1ccc(N2CCCC2)c(-c2cc3ccc(F)cc3[nH]2)c1
EC50 [19]: 62 nM

CN(C)S(=O)(=O)c1ccc(N2CCCC2)c(C(=O)Nc2ccc(F)cc2)c1
EC50 [19]: 1390 nM

Reference: ChEMBL document CHEMBL5576149, “Discovery of Potent STT3A/B Inhibitors and Assessment of Their Multipathogen Antiviral Potential and Safety” (J Med Chem, 2024)
